Test results: patent publication US12275766B2, “Neoantigen peptide mimics” (Janssen Biotech, Inc., priority 2020, dated 2025)
Ends that are not written are not given here.

What was measured:
[1] = system: CD8+ T cells from HLA-02:01+ PBMCs; assay: Frequency of double positive T cells for mimic and mutant tetramers (flow cytometry); format: cell-based, human
Description: Preparation of PBMCs: Vials of HLA-02:01^+ PBMCs frozen from donors (Hemacare) were removed from LN2 storage and rapidly thawed in a 37° C. water bath. The cells were transferred to a 50 mL conical tube containing 40 mL warm media (RPMI 1640 medium+10% fetal bovine serum (FBS)+1% Penicillin streptomycin solution), spun at 1300 rpm for 5 minutes at room temperature. The cell pellet was resuspended in 2 mL EASYSEP™ buffer and cells were counted using trypan blue live dead marker using a haemocytometer.
Enrichment of CD8+ T cells: To enrich the CD8+ T cells from the PBMCs, EASYSEP™ Human CD8+ T Cell Isolation Kit was used as per the manufacturer's instructions. Post enrichment, the cell pellet was resuspended in Dulbecco's phosphate-buffered saline (DPBS) and cells were counted as above. To determine the viability, LIVE/DEAD™ Fixable Violet Dead Cell Stain Kit was used at 0.5 μL/1×10^6/100 μL cell suspension and incubated at room temperature for 20 minutes. At the end of incubation period, FACS buffer (DPBS+2% FBS) was added and the cells were spun at 1300 rpm for 5 minutes at room temperature. The cell pellet was resuspended in FACS buffer, trypan blue was added, and the cell count was determined using a haemocytometer. The cell density was maintained at 1×10^6/50 μL FACS buffer. 3 μL Fc block was added per 1×10^6 cells and incubated for 10 minutes at room temperature in the dark. At the end of the incubation, mimic tetramer and the corresponding mutant tetramers were added at 3 μL tetramer/1×10^6 cells.
For frequency determination, 2×10^6 cells were used for test samples and 1×10^6 cells were used for control samples where negative tetramers were added in place of the mimic or mutant tetramers. A sample where no tetramers were added was kept as unstained control. The samples were incubated at room temperature for 30 minutes in dark. At the end of incubation period, CD8 antibody was added at 2 μL/1×10^6 cells and the samples were incubated for another 30 minutes at room temperature in dark. At the end of incubation, FACS buffer was added to the samples and the samples were spun at 1300 rpm for 5 minutes. The pellet was resuspended in 5 mL FACS buffer and the cells were spun at 1300 rpm for 5 minutes. The pellet was resuspended in 200 μL FACS buffer and events were acquired using the Novocyte flow cytometer.
The cells were acquired on the Novocyte flow cytometer and gated on forward scatter height (FSC-H) versus side scatter height (SSC-H). The cells high on FSC-H versus SSC-H were gated as lymphocytes. From the lymphocytes, live cells were gated by selecting the pacific blue negative cells on an FSC-H versus Pacific Blue-H plot. From the live cells, single cells were gated on FSC-H versus forward scatter area (FSC-A). CD8+ T cells were gated from the singlets as Alexa Fluor 700 positive cells. For gating phycoerythrin (PE) conjugated tetramer positive cells, the CD8^+ cells were gated on Alexa Fluor 700-H versus PE-H and the double positive cells were considered as CD8+ tetramer+. For gating allophycocyanin (APC) conjugated tetramer positive cells, the CD8^+ cells were gated on Alexa Fluor 700-H versus APC-H and the double positive cells were considered as CD8+tetramer+. All gates were set using the negative tetramers to eliminate non-specific binding. The dual positive cells that were mimic and mutant tetramer positive cells were gated by plotting PE-H versus APC-H within the CD8^+ cells.

HLA-A*02:01 = HLA-A*02:01 (Homo sapiens, UniProt P04439, D140Y/D185E/D98H/E176V/E277Q/G131W/G231S/I119V/I121R/I166T/I218V/L300P/L318F/N151K/N90K/P208A/P217A/Q86G/Q94H/R138H/R169H/T345S); format: binding; conditions: for Average %: average of Exch I and Exch II, relative to exchange control peptide Pos (100%); for Exch I (%): first UV-induced peptide exchange; for Exch I (%) / Exch II (%): absorbance relative to exchange control peptide Pos (100%); for Exch II (%): second UV-induced peptide exchange
[2] = donor 17042765, frequency of double positive T cells at least 2-fold higher than the background (negative tetramers)
[3] = donor 19054445, frequency of double positive T cells at least 2-fold higher than the background (negative tetramers)

Substance: Mutant (SEQ ID NO: 2) Mimic (SEQ ID NO: 29): pair of tetramers loaded with mutant YLDCGIHSG (APC) and mimic YLDCGIHSV (PE) (not fully specified; cysteine pairing not given here)
- Frequency (%) of double positive T cells within CD8+ compartment of donors ([1]; Donor ID 20001476): 0.075%
- Frequency (%) of double positive T cells within CD8+ compartment of donors ([1]; Donor ID 20001487): 0.000%
- Frequency (%) of double positive T cells within CD8+ compartment of donors ([1]; Donor ID 20061357): 0.095%
- Frequency (%) of double positive T cells within CD8+ compartment of donors ([1]; Donor ID 20061599): 0.000%
- Frequency (%) of double positive T cells within CD8+ compartment of donors ([1]; Donor ID 20061661): 0.000%
- Frequency (%) of double positive T cells within CD8+ compartment of donors ([1]; Donor ID 20062224): 0.000%
- Frequency (%) of double positive T cells within CD8+ compartment of donors ([1]; Donor ID 20062384): 0.000%

Substance: 7 (LVVVGAVGV) [compound 7]
- Average % (HLA-A*02:01): 4.5%
- Exch I (%) (HLA-A*02:01): 4.3%
- Exch II (%) (HLA-A*02:01): 4.6%

Substance: Mutant (SEQ ID NO: 13) Mimic (SEQ ID NO: 59): pair of tetramers loaded with mutant KTYPVQLWV (APC) and mimic KMYPVQLWL (PE) (not fully specified)
- Frequency (%) of double positive T cells within CD8+ compartment of donors ([1]; Donor ID 17042380): 0.04%
- Frequency (%) of double positive T cells within CD8+ compartment of donors ([1]; Donor ID 17042765): 0.13%
- Frequency (%) of double positive T cells within CD8+ compartment of donors ([1]; Donor ID 18047563): 0.01%
- Frequency (%) of double positive T cells within CD8+ compartment of donors ([1]; Donor ID 19053796): 0.06%
- Frequency (%) of double positive T cells within CD8+ compartment of donors ([1]; Donor ID 19054141): 0.02%
- Frequency (%) of double positive T cells within CD8+ compartment of donors ([1]; Donor ID 19054183): 0.01%
- Frequency (%) of double positive T cells within CD8+ compartment of donors ([1]; Donor ID 19054445): 0.38%
- Frequency (%) of double positive T cells within CD8+ compartment of donors ([1]; Donor ID 19054456): 0%
- T-cells positive for mutant-mimic pair [1, 2]: positive
- T-cells positive for mutant-mimic pair ([1]; donor 19053796): positive
- T-cells positive for mutant-mimic pair [1, 3]: positive

Substance: 6 (LVVVGACGV) [compound 6]
- Average % (HLA-A*02:01): 7.0%
- Exch I (%) (HLA-A*02:01): 6.5%
- Exch II (%) (HLA-A*02:01): 7.5%

Substance: Mutant (SEQ ID NO: 16) Mimic (SEQ ID NO: 64): pair of tetramers loaded with mutant ALNNMFCQL (PE) and mimic ALNNMFCQV (APC) (not fully specified; cysteine pairing not given here)
- Frequency (%) of double positive T cells within CD8+ compartment of donors ([1]; Donor ID 20001476): 0.021%
- Frequency (%) of double positive T cells within CD8+ compartment of donors ([1]; Donor ID 20001487): 0.000%
- Frequency (%) of double positive T cells within CD8+ compartment of donors ([1]; Donor ID 20061357): 0.002%
- Frequency (%) of double positive T cells within CD8+ compartment of donors ([1]; Donor ID 20061599): 0.000%
- Frequency (%) of double positive T cells within CD8+ compartment of donors ([1]; Donor ID 20061661): 0.000%
- Frequency (%) of double positive T cells within CD8+ compartment of donors ([1]; Donor ID 20062224): 0.016%
- Frequency (%) of double positive T cells within CD8+ compartment of donors ([1]; Donor ID 20062384): 0.000%

Substance: Mutant (SEQ ID NO: 23) Mimic (SEQ ID NO: 78): pair of tetramers loaded with mutant VVPCEPPEV (PE) and mimic VLPCEPPEV (APC) (not fully specified; cysteine pairing not given here)
- Frequency (%) of double positive T cells within CD8+ compartment of donors ([1]; Donor ID 20001476): 0.153%
- Frequency (%) of double positive T cells within CD8+ compartment of donors ([1]; Donor ID 20001487): 0.000%
- Frequency (%) of double positive T cells within CD8+ compartment of donors ([1]; Donor ID 20061357): 0.006%
- Frequency (%) of double positive T cells within CD8+ compartment of donors ([1]; Donor ID 20061599): 0.000%
- Frequency (%) of double positive T cells within CD8+ compartment of donors ([1]; Donor ID 20061661): 0.000%
- Frequency (%) of double positive T cells within CD8+ compartment of donors ([1]; Donor ID 20062224): 0.000%
- Frequency (%) of double positive T cells within CD8+ compartment of donors ([1]; Donor ID 20062384): 0.023%

Substance: Mutant (SEQ ID NO: 22) Mimic (SEQ ID NO: 75): pair of tetramers loaded with mutant LLGRNSFEM (PE) and mimic LLGRNSFEL (APC) (not fully specified)
- Frequency (%) of double positive T cells within CD8+ compartment of donors ([1]; Donor ID 20001476): 0.000%
- Frequency (%) of double positive T cells within CD8+ compartment of donors ([1]; Donor ID 20001487): 0.000%
- Frequency (%) of double positive T cells within CD8+ compartment of donors ([1]; Donor ID 20061357): 0.004%
- Frequency (%) of double positive T cells within CD8+ compartment of donors ([1]; Donor ID 20061599): 0.000%
- Frequency (%) of double positive T cells within CD8+ compartment of donors ([1]; Donor ID 20061661): 0.000%
- Frequency (%) of double positive T cells within CD8+ compartment of donors ([1]; Donor ID 20062224): 0.015%
- Frequency (%) of double positive T cells within CD8+ compartment of donors ([1]; Donor ID 20062384): 0.000%

Substance: Mutant (SEQ ID NO: 9) Mimic (SEQ ID NO: 45): pair of tetramers loaded with mutant ILNREIDFA (PE) and mimic ILNREIDFV (APC) (not fully specified)
- Frequency (%) of double positive T cells within CD8+ compartment of donors ([1]; Donor ID 17042380): 0.05%
- Frequency (%) of double positive T cells within CD8+ compartment of donors ([1]; Donor ID 17042765): 0.14%
- Frequency (%) of double positive T cells within CD8+ compartment of donors ([1]; Donor ID 18047563): 0.01%
- Frequency (%) of double positive T cells within CD8+ compartment of donors ([1]; Donor ID 19053796): 0.1%
- Frequency (%) of double positive T cells within CD8+ compartment of donors ([1]; Donor ID 19054141): 0.03%
- Frequency (%) of double positive T cells within CD8+ compartment of donors ([1]; Donor ID 19054183): 0.01%
- Frequency (%) of double positive T cells within CD8+ compartment of donors ([1]; Donor ID 19054445): 0.24%
- Frequency (%) of double positive T cells within CD8+ compartment of donors ([1]; Donor ID 19054456): 0.01%
- T-cells positive for mutant-mimic pair [1, 2]: positive
- T-cells positive for mutant-mimic pair ([1]; donor 19053796): positive
- T-cells positive for mutant-mimic pair [1, 3]: positive

Substance: Mutant (SEQ ID NO: 18) Mimic (SEQ ID NO 68): pair of tetramers loaded with mutant QLWVDSTPL (APC) and mimic QLWVDSTPV (PE) (not fully specified)
- Frequency (%) of double positive T cells within CD8+ compartment of donors ([1]; Donor ID 17042380): 0.01%
- Frequency (%) of double positive T cells within CD8+ compartment of donors ([1]; Donor ID 17042765): 0%
- Frequency (%) of double positive T cells within CD8+ compartment of donors ([1]; Donor ID 18047563): 0%
- Frequency (%) of double positive T cells within CD8+ compartment of donors ([1]; Donor ID 19053796): 0%
- Frequency (%) of double positive T cells within CD8+ compartment of donors ([1]; Donor ID 19054141): 0%
- Frequency (%) of double positive T cells within CD8+ compartment of donors ([1]; Donor ID 19054183): 0%
- Frequency (%) of double positive T cells within CD8+ compartment of donors ([1]; Donor ID 19054445): 0.01%
- Frequency (%) of double positive T cells within CD8+ compartment of donors ([1]; Donor ID 19054456): 0%
- T-cells positive for mutant-mimic pair ([1]; donor 19053796): positive

Substance: Mutant (SEQ ID NO: 3) Mimic (SEQ ID NO: 32): pair of tetramers loaded with mutant YLDSGIHFG (APC) and mimic YLDSGIHFV (PE) (not fully specified)
- Frequency (%) of double positive T cells within CD8+ compartment of donors ([1]; Donor ID 20001476): 0.051%
- Frequency (%) of double positive T cells within CD8+ compartment of donors ([1]; Donor ID 20001487): 0.000%
- Frequency (%) of double positive T cells within CD8+ compartment of donors ([1]; Donor ID 20061357): 0.007%
- Frequency (%) of double positive T cells within CD8+ compartment of donors ([1]; Donor ID 20061599): 0.000%
- Frequency (%) of double positive T cells within CD8+ compartment of donors ([1]; Donor ID 20061661): 0.000%
- Frequency (%) of double positive T cells within CD8+ compartment of donors ([1]; Donor ID 20062224): 0.000%
- Frequency (%) of double positive T cells within CD8+ compartment of donors ([1]; Donor ID 20062384): 0.023%

Substance: 99 (NLVPMVATL) [compound 99]
- Average % (HLA-A*02:01): 23.6%
- Exch I (%) (HLA-A*02:01): 26.8%
- Exch II (%) (HLA-A*02:01): 20.4%
